Measured values published in PubChem BioAssay (NCI).
Values joined by “and” are separate entries in the source; they are usually repeats but may differ in a detail not shown here. Equal values may be shown once.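 Exposure lasted 48 hours, with cells grown in 96-well plates and compounds tested at five concentrations. GI50 marks 50% less growth. TGI: concentration producing complete growth inhibition.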

What was measured:
Assay in all cases: growth of human tumour cells (NCI), 48 h
[1] = system: OVCAR-4 ovarian
[2] = system: EKVX NSCLC
[3] = system: A549 NSCLC
[4] = system: OVCAR-8 ovarian
[5] = system: UACC-257 melanoma
[6] = system: K-562 leukemia
[7] = system: BT-549 breast
[8] = system: 786-0 renal
[9] = system: HL-60(TB) leukemia
[10] = system: DU-145 prostate
[11] = system: CAKI-1 renal
[12] = system: SF-295 CNS
[13] = system: SK-MEL-5 melanoma
[14] = system: HCC-2998 colon
[15] = system: SF-268 CNS
[16] = system: T-47D breast
[17] = system: HOP-62 NSCLC
[18] = system: SN12C renal
[19] = system: MDA-MB-435
[20] = system: TK-10 renal
[21] = system: MCF7 breast
[22] = system: UO-31 renal
[23] = system: NCI/ADR-RES ovarian
[24] = system: HCT-116 colon
[25] = system: SK-MEL-2 melanoma
[26] = system: SF-539 CNS
[27] = system: SNB-19 CNS
[28] = system: M14 melanoma
[29] = system: OVCAR-3 ovarian
[30] = system: MDA-MB-231 breast
[31] = system: SNB-75 CNS
[32] = system: ACHN renal
[33] = system: KM12 colon
[34] = system: PC-3 prostate
[35] = system: MDA-N
[36] = system: U251 CNS
[37] = system: SK-MEL-28 melanoma
[38] = system: SW-620 colon
[39] = system: HCT-15 colon
[40] = system: LOX IMVI melanoma
[41] = system: UACC-62 melanoma
[42] = system: NCI-H460 lung
[43] = system: SR leukemia
[44] = system: OVCAR-5 ovarian
[45] = system: A498 renal
[46] = system: HT29 colon
[47] = system: HOP-92 NSCLC
[48] = system: RXF 393 renal
[49] = system: CCRF-CEM leukemia
[50] = system: NCI-H23 lung
[51] = system: SK-OV-3 ovarian
[52] = system: MOLT-4 leukemia
[53] = system: RPMI-8226 leukemia
[54] = system: COLO 205 colon
[55] = system: IGROV1 ovarian
[56] = system: MALME-3M melanoma
[57] = system: HS 578T breast
[58] = system: NCI-H522 lung
[59] = system: NCI-H226 lung

For `Fc1cccc(C2SCC3=Nc4ccccc4CN32)c1` (configuration not stated), the TGI [1] was > 100 µM, the TGI [2] was > 100 µM and the TGI [3] was > 100 µM. For the same compound, the TGI [4] was > 100 µM, the TGI [5] was > 100 µM and the TGI [6] was > 100 µM. For the same compound, the TGI [7] was > 100 µM, the TGI [8] was > 100 µM and the TGI [9] was > 100 µM. For the same compound, the TGI [10] was > 100 µM, the TGI [11] was > 100 µM and the TGI [12] was > 100 µM. For the same compound, the TGI [13] was 41.1 µM, the TGI [14] was > 100 µM and the TGI [15] was > 100 µM. The TGI [16] was > 100 µM, the TGI [17] was > 100 µM and the TGI [18] was > 100 µM. For the same compound, the TGI [19] was > 100 µM, the TGI [20] was > 100 µM and the TGI [21] was > 100 µM. The TGI [22] was > 100 µM, the TGI [23] was 35.9 µM and the TGI [24] was 88.6 µM. For the same compound, the TGI [25] was 49.7 µM, the TGI [26] was > 100 µM and the TGI [27] was > 100 µM. The TGI [28] was > 100 µM, the TGI [29] was 70.5 µM and the TGI [30] was > 100 µM. For the same compound, the TGI [31] was > 100 µM, the TGI [32] was > 100 µM and the TGI [33] was > 100 µM. The TGI [34] was > 100 µM, the TGI [35] was > 100 µM and the TGI [36] was > 100 µM. For the same compound, the TGI [37] was > 100 µM, the TGI [38] was > 100 µM and the TGI [39] was > 100 µM. The TGI [40] was > 100 µM, the TGI [41] was > 100 µM and the TGI [42] was > 100 µM. The TGI [43] was > 100 µM, the TGI [44] was > 100 µM and the TGI [45] was > 100 µM. For the same compound, the TGI [46] was 74.3 µM, the TGI [47] was > 100 µM and the TGI [48] was > 100 µM. For the same compound, the TGI [49] was > 100 µM, the TGI [50] was > 100 µM and the TGI [51] was > 100 µM. For the same compound, the TGI [52] was > 100 µM, the TGI [53] was > 100 µM and the TGI [54] was > 100 µM.

In the case of `CCOP(=O)(O)CC1OC(CO)C(O)C1O` (configuration not stated), the TGI [55] is reported as > 100 µM, the TGI [56] is reported as > 100 µM and the TGI [2] is reported as > 100 µM. The TGI [3] was > 100 µM, the TGI [4] was > 100 µM and the TGI [5] was > 100 µM. For the same compound, the TGI [6] was > 100 µM, the TGI [7] was > 100 µM and the TGI [8] was > 100 µM. The GI50 [9] was 30.1 µM and > 100 µM, the TGI [9] was > 100 µM and the TGI [10] was > 100 µM. The TGI [12] was > 100 µM, the TGI [13] was > 100 µM and the TGI [15] was > 100 µM. For the same compound, the TGI [16] was > 100 µM, the TGI [17] was > 100 µM and the TGI [57] was > 100 µM. The TGI [18] was > 100 µM, the TGI [20] was > 100 µM and the TGI [22] was > 100 µM. The TGI [23] was > 100 µM, the TGI [24] was > 100 µM and the TGI [58] was > 100 µM. The TGI [25] was > 100 µM, the TGI [26] was > 100 µM and the TGI [27] was > 100 µM. For the same compound, the TGI [28] was > 100 µM, the TGI [29] was > 100 µM and the TGI [30] was > 100 µM. For the same compound, the TGI [31] was > 100 µM, the TGI [32] was > 100 µM and the TGI [34] was > 100 µM. The TGI [35] was > 100 µM, the TGI [36] was > 100 µM and the TGI [37] was > 100 µM. The TGI [38] was > 100 µM, the TGI [39] was > 100 µM and the TGI [40] was > 100 µM. The TGI [41] was > 100 µM, the TGI [42] was > 100 µM and the TGI [44] was > 100 µM. The TGI [46] was > 100 µM, the TGI [59] was > 100 µM and the TGI [47] was > 100 µM. For the same compound, the TGI [48] was > 100 µM, the TGI [49] was > 100 µM and the TGI [50] was > 100 µM. The TGI [51] was > 100 µM, the TGI [52] was > 100 µM and the TGI [54] was > 100 µM.

`N#CC(C/C=C/c1ccccc1)NNC(=O)c1c(Cl)c(Cl)c(Cl)c(Cl)c1-c1nc2ccc(C(=O)c3ccccc3)cc2[nH]1` (configuration not stated) was tested, and the TGI [55] was > 100 µM, the TGI [1] was 73.9 µM and the TGI [2] was 47.4 µM. The TGI [3] was 55.4 µM, the TGI [4] was 37.1 µM and the TGI [5] was > 100 µM. The TGI [6] was 55.2 µM, the TGI [7] was 54.4 µM and the TGI [8] was 30.2 µM. For the same compound, the TGI [9] was 54.5 µM, the TGI [10] was 50.7 µM and the TGI [11] was > 100 µM. The TGI [12] was 22.4 µM, the TGI [13] was 32 µM and the TGI [16] was 63.8 µM. The TGI [17] was 24.8 µM, the TGI [18] was 32.7 µM and the TGI [19] was 51.9 µM. The TGI [20] was 66 µM, the TGI [21] was 36.2 µM and the TGI [22] was > 100 µM. For the same compound, the TGI [23] was 31 µM, the TGI [24] was 62.2 µM and the TGI [25] was 45 µM. For the same compound, the TGI [26] was 26.9 µM, the TGI [27] was 35.8 µM and the TGI [28] was 30.9 µM. It also gave a TGI [29] of 37.4 µM, a TGI [30] of 34.4 µM and a TGI [31] of 46.4 µM. The TGI [32] was 97.3 µM, the TGI [33] was > 100 µM and the TGI [34] was 35.9 µM. The TGI [35] was 19.4 µM, the TGI [36] was 25 µM and the TGI [37] was > 100 µM. The TGI [38] was > 100 µM, the TGI [39] was 29.2 µM and the TGI [40] was 28.5 µM. For the same compound, the TGI [43] was 45.2 µM, the TGI [44] was 94.7 µM and the TGI [45] was 41.9 µM. It also gave a TGI [46] of 33.2 µM, a TGI [59] of 41.6 µM and a TGI [47] of 73.3 µM. The TGI [48] was 39.8 µM, the TGI [49] was 20.3 µM and the TGI [50] was 55.8 µM. The TGI [51] was 55.5 µM, the TGI [52] was 81.5 µM and the TGI [53] was 50.2 µM. For the same compound, the TGI [54] was 42 µM.
